This assay deals with T1, Y705P STAT3 and S727P STAT3 (Homo sapiens, UniProt P40763).
T1 construct: tissue Jackson Laboratories TM00096; host or cells: patient-derived TNBC tumour in NOD.Cg-Prkdcscid Il2rgtm1Wjl/SzJ mice
Nature of the assay: IHC and immunoblot of phospho-STAT3 in PDX tumors. Format: in vivo, mouse. As to conditions: tumor tissue; for expression of Y705PSTAT3 (IHC): p<0.0001 versus vehicle. How it is done: FIG. 15 illustrates an embodiment of the present invention and illustrates SIM 1 and 2 inhibited Y705P phosphorylation of STAT3 and the expressions of STAT3-dependent tumor supportive genes. (A) DAB immunostaining of Y705P STAT3 in tumor parenchyma of all three groups. (B) Quantitative analysis of Y705P STAT3-ir cells was performed by counting Y705P STAT3 cells in 15 different images, converting into a percent scale, and then plotting in a scatter histogram. On-way ANOVA followed by multiple comparison test indicated ****p<0.0001 versus control. (C) DAB immunostaining of S727P STAT3 followed by a (D) quantitative analysis of S727P STAT3-ir cells was performed in 15 different images and then plotted as a percent of total cells by a scatter histogram. On-way ANOVA represents no significance (NS) between groups. (E) Immunoblot analyses of Y705PSTAT3 (Rabbit […] antibody Cat #710093; Invitrogen), S727PSTAT3 (Mouse 1° antibody cat #MA5-15208; Invitrogen) followed by normalization with loading control β-actin (Mouse 1° antibody cat #MA1-744; Invitrogen). (F) A cDNA-based gene array of 66 STAT3-dependent tumor promoting genes were analyzed in TNBC tumors of vehicle-, SIM-1-, and SIM-2-treated mice. (G) A scatter plot summarized the gene array results. Based on the relative levels of expressions, gene levels were classified as low, moderate, and highly expressed. Results are confirmed after three different experiments.
Immunoblot assay. Immunoblot assay was performed as described before. Briefly, cell lysates were mixed with 5× Lamelli buffer, electrophoresed in 4-12% Tris-Glycine gel in tris-glycine SDS running buffer, transferred in a nitrocellulose membrane (P/N 926-31090; Li-Cor Biosciences, Lincoln, NE) in tris-glycine transfer buffer, incubated with appropriate primary antibodies overnight under shaking condition, labeled with IRDye700 and 800-tagged secondary antibodies for 2 hrs at room temperature in an orbital shaker, and then imaged in Odyssey Sa imager at 200 μm resolution.
Immunohistochemical (IHC) analyses. Tumor tissues were embedded in paraffin, cut at a thickness of 5 μm in Leica microtome, attached to a charged slide, dried in a dry bath at 37° C. for at least 48 hrs., and then progressed for IHC analysis. The IHC analysis was performed where, briefly, sections were deparaffinized by xylene and rehydrated by ethanol gradient (100%>70%>50%>20%; v/v) followed by complete rehydration by water. After that sections were blocked by Intercept® (TBS) Blocking Buffer (Licor Biosciences, Lincoln, NE) for 30 minutes, incubated with primary (1°) antibodies (Refer to Table 1) overnight at 4° C., washed with 1×TBST wash buffer for 3 times, incubated with biotinylated anti-mouse (1:200 dilution) or anti-rabbit (1:200 dilution) secondary (2°) antibodies (ThermoFisher), for 2 hrs., reacted with VECTASTAIN® Elite® ABC-HRP Kit, Peroxidase (Cat #PK-6100; Vector Laboratories) for 1 hr. as per manufacturer's recommendation, and finally stained with DAB chromogenic solution (Cat #SK-4100; Vector Laboratories).
This example provides a representative experiment that tested if SIM-1 and SIM-2 suppressed the activation of STAT3 in TNBC tumors. […] The result was further corroborated by the quantitative analysis (FIG. 15B), which indicated a significant downregulation of Y705PSTST3-ir cells (One-way ANOVA indicated ****p<0.0001 versus vehicle).
On the contrary, the expression of S727PSTAT3, another active isomer of STAT3, remained very low and unchanged across the treatment groups (FIG. 15C).
These genes include anti-apoptotic genes such as bcl-2, survivin, and bcl-xl; cell cycle progression markers such as cyclin D1, akt, and p21.
For orientation: Immunoblotting shows a protein as a band on a membrane.

T1 sequence (P40763 2-770 Y705P/S727P limits assumed): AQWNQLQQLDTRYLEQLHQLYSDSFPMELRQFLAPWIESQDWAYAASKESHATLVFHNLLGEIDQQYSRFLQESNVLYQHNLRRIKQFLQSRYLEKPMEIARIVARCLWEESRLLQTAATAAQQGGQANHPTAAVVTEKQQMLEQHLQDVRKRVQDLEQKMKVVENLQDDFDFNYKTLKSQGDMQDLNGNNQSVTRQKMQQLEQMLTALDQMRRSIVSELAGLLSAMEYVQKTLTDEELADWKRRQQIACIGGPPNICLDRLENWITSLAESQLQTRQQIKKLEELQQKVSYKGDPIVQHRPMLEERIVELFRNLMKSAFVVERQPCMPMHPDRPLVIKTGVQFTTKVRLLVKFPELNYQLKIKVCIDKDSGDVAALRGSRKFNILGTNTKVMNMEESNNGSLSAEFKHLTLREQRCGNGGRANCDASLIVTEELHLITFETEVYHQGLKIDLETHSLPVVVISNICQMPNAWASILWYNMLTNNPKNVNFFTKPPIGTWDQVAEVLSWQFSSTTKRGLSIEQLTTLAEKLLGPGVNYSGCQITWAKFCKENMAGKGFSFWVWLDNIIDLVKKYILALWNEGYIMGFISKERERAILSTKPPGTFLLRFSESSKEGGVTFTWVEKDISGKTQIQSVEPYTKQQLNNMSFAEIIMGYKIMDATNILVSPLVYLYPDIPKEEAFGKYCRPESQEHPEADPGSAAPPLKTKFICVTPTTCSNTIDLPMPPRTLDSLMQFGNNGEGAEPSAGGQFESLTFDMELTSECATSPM

For the compound `O=C(O)CCC(=O)NCc1csc2ccc(Cl)cc12` [SIM-1, 4-[(5-chloro-1-benzothiophen-3-yl)methylamino]-4-oxobutanoic acid], the “S727P STAT3 expressions (IHC)” value is on record as “did not show any change”; the “Y705 phosphorylation of STAT3 (immunoblot)” value was “strongly and selectively suppressed”; the “expression of Y705PSTAT3 (IHC)” value is listed as “significantly suppressed”.

`CCOC(=O)c1c(NC(C)=O)sc2c(Cl)c(/C=N/O)ccc12` [SIM-2, ethyl 2-acetamido-7-chloro-6-(hydroxyiminomethyl)-1-benzothiophene-3-carboxylate]: the “S727P STAT3 expressions (IHC)” value is given as “did not show any change”; the “Y705 phosphorylation of STAT3 (immunoblot)” value was “strongly and selectively suppressed”; the “expression of Y705PSTAT3 (IHC)” value was “completely ameliorated”.

These data come from US20250255847A1, “[…]s: Novel Drugs for Triple Negative Breast Cancer” (SIMMARON RSEARCH INC, priority 2024, published 2025).
